This is an account of results in patent US11325921B2, “Optically active crosslinked cyclic secondary amine derivative” (Sumitomo Dainippon Pharma Co., Ltd., priority 2018, dated 2022).

For series [1], the system named is HOXA9 mRNA in MV4; 11 cells. The series is described as follows: Test 3: inhibition of mRNA transcription, HOXA9. The format is cell-based. Conditions: Homo sapiens, 20 to 24 hours, fitted with GAPDH, read-out: mRNA at 1 μM (% control) HOXA9. The method, then: (§1) MV4; 11 cells were obtained from American Type Culture Collection (ATCC). The cells were cultured at 37° C. in the presence of 5% CO2 in RPMI 1640 medium containing 10% fetal bovine serum and 1% penicillin/streptomycin. To the MV4; 11 cells was added each test compound to adjust the final concentration to 1 μmol/L, and the cells were cultured at 37° C. in the presence of 5% CO2 for 20 to 24 hours. After the incubation, the total RNA was extracted from the cells with RNeasy™ Mini Kit (QIAGEN, 74106), and cDNA was synthesized with Superscript™ VILO™ cDNA Synthesis Kit (Invitrogen, #11754250). By using TaqMan™ Gene Expression Master Mix (Applied Biosystems, 4369016) and TaqMan™ probe (Applied Biosystems), the expression level of mRNA was quantified from the obtained cDNA with 7900HT (Applied biosystems). The mRNA expression level of each obtained gene was fitted with the expression level of mRNA of GAPDH.

The next series relates to RS4; 11 cells. The series is described as follows: Test 2: inhibition of cell proliferation, RS4; 11. The format is cell-based. The settings on record: Homo sapiens, 168 h, 11 cells, cultured 7 days, PrestoBlue. The method, then:
(§2) RS4; 11 cells were obtained from American Type Culture Collection (ATCC). The cells were cultured at 37° C. in the presence of 5% CO2 in RPMI 1640 medium containing 10% fetal bovine serum and 1% penicillin/streptomycin. MOLM-13 cells were separately obtained from DSMZ. The cells were cultured at 37° C. in the presence of 5% CO2 in RPMI 1640 medium containing 20% fetal bovine serum and 1% penicillin/streptomycin.
(§3) The cells were plated to a 96-well plate in 2000 cells/well, each test compound was added thereto to adjust the final concentration of DMSO to 0.1% of DMSO, and the cells were cultured for 7 days. After the cultivation, the cell viability was calculated with PrestoBlue™ Cell Viability Reagent (Invitrogen, A13261). The IC50 value was calculated from a survival curve, that corresponds to the concentration of the test compound at which the cell proliferation inhibition rate is 50%.

Series [2] has as its system MEIS1 mRNA in MV4; 11 cells. The series is described as follows: Test 3: inhibition of mRNA transcription, MEIS1. The settings on record: Homo sapiens, MV4, 20 to 24 hours, fitted with GAPDH, read-out: mRNA at 1 μM (% control) MEIS1. The format is cell-based. The method, then:
as §1

Series [3] addresses Menin-MLL binding (His-Menin1-615 / MLL1-172-FLAG) (Homo sapiens (Human), UniProt O00255). The series is described as follows: Test 1: inhibition of the Menin-MLL binding (HTRF). The method, then:
Menin1-615 wherein 6× His tag and HA tag are inserted in the N-terminus, and myc tag is inserted in the C-terminus (hereinafter, referred to as His-Menin1-615), was diluted with an assay buffer (25 mmol/L HEPES, 150 mmol/L NaCl, 1 mmol/L dithiothreitol, 0.5% (w/v) Tween 80, 0.3% (w/v) BSA, 0.3% (w/v) skim milk) to adjust the final concentration Lo 30 nmol/L. The test compounds were also diluted with the assay buffer to adjust each concentration of the test compounds to 0.005 to 5 μmol/L. The prepared His-Menin1-615 and test compounds were added to a light-shielding 384-well low-volume plate (Corning, #4514) in 2 μL/well and 6 μL/well, respectively, and the plate was covered with a lid for light-shielding (Corning, r-3935), and incubated at room temperature for 3 hours. After the incubation, MLL1-172 wherein FLAG tag is inserted in the C-terminus (MLL1-172-FLAG), was separately diluted with the assay buffer to adjust the final concentration to 50 nmol/L. The prepared MLL1-172-FLAG was added to the above plate in 2 μL/well, and the plate was covered with a lid for light-shielding and incubated at room temperature for an hour.
Then, anti-6HIS-d2 antibody (cisbio, 61HISDLA) and anti-FLAGM2-K antibody (cisbio, 61FG2KLA) were diluted with an antibody dilution buffer (50 mmol/L Tris, 150 mmol/L NaCl, 800 mmol/L KF, pH 7.4) to adjust the final concentration to 1.4 μg/mL to prepare an antibody mixture. The prepared antibody mixture was added to the above plate in 10 μL/well, and the plate was covered with a lid and incubated at 4° C. for 17 to 24 hours. After the incubation, the signal was detected with RUBYstar (BMG LABTECH). The binding inhibition rate (%) at each concentration of the test compounds was calculated from the following formula, and the IC50 value was obtained, that corresponds to the concentration of the test compound at which the binding inhibition rate is 50%.
Background: TR-FRET usually uses a lanthanide donor and a delayed reading to cut background.

A short description of series [4]: Test 4: pharmacokinetic study. The format is in vivo. Conditions: male SD rat, oral, 10 mg/kg; for AUC(0-t): plasma, 24 hours, read-out: AUC0-t; for compound-exposure in plasma (in words): summary of the table. The method, then:
The test compound suspended in 0.5% methylcellulose was orally administered to 7-week-old male SD rat in a dose of 10 mg/kg. The blood sample was taken from jugular vein without anesthesia over time for 24 hours. The blood sample was centrifuged to obtain plasma. The plasma was pre-treated by methanol extraction method, and then analyzed with an LC-MS/MS to determine the concentration of the test compound. Based on the data from 0 hour after the administration until the time (t) when there was the final detection in the plasma, AUC was calculated by trapezoidal method.

Another series relates to MOLM-13 cells. The series is described as follows: Test 2: inhibition of cell proliferation, MOLM-13. The format is cell-based. The settings on record: Homo sapiens, 168 h, cultured 7 days, PrestoBlue. The method, then:
as §2, §3

The IC50 is the concentration needed to halve the response being measured. Higher therefore signals weaker potency.

Sequence of Menin-MLL binding (His-Menin1-615 / MLL1-172-FLAG) (O00255 other isoform, or with tags, fused parts or gaps): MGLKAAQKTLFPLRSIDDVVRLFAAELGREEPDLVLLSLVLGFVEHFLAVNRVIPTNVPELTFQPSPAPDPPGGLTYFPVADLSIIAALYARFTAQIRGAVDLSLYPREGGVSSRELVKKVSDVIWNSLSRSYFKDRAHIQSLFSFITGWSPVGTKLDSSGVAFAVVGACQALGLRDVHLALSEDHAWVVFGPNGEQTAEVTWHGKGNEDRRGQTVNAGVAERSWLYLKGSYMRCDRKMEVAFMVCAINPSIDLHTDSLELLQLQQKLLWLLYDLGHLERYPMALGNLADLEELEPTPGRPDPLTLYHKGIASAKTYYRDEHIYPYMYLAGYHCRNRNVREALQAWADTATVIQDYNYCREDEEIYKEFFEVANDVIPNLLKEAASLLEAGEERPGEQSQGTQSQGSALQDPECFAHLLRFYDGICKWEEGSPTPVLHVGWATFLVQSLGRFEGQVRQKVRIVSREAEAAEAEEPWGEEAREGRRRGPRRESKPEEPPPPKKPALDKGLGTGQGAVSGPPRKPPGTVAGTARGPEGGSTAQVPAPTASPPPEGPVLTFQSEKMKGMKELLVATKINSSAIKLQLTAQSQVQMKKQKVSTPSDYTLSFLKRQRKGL

`O=C([C@H]1N[C@@H]2CC[C@H]1C2)N1CC2(C1)CN(c1c(C(F)(F)F)cnc3sc(CC(F)(F)F)cc13)C2` [Example 2, [(1R,3S,4S)-2-azabicyclo[2.2.1]heptan-3-yl]{6-[2-(2,2,2-trifluoroethyl)-5-(trifluoromethyl)thieno[2,3-b]pyridin-4-yl]-2,6-diazaspiro[3.3]heptan-2-yl}methanone]: the mrna remaining at 1 µM came to 34.3% in series [1] and 32% in series [2]. Besides, the half-inhibitory concentration (IC50) in the series on RS4; 11 cells worked out at 200 nM; in series [3], 17.8 nM; in the series with MOLM-13 cells, 260 nM. Besides, the AUC(0-t) in series [4] is 1960 ng·h/mL. Moreover, the “compound-exposure in plasma (in words)” value in series [4] was “good compound-exposure in plasma”.

For `O=C([C@H]1NC2CCC1CC2)N1CC2(C1)CN(c1c(C(F)(F)F)cnc3sc(CC(F)(F)F)cc13)C2` [Example 3, [(3S)-2-azabicyclo[2.2.2]octan-3-yl]{6-[2-(2,2,2-trifluoroethyl)-5-(trifluoromethyl)thieno[2,3-b]pyridin-4-yl]-2,6-diazaspiro[3.3]heptan-2-yl}methanone], the figures for the mrna remaining at 1 µM in series [1] and in series [2] were 32% and 18.7%, respectively. The IC50 in the series with RS4; 11 cells was 200 nM; in series [3] it was 31.8 nM; in the series on MOLM-13 cells it was 210 nM. Also, the AUC(0-t) in series [4] was 1210 ng·h/mL. Besides, the “compound-exposure in plasma (in words)” value in series [4] was “good compound-exposure in plasma”.

Turning to `O=C([C@H]1N[C@H]2C[C@@H]1[C@@H](F)C2)N1CC2(C1)CN(c1c(C(F)(F)F)cnc3sc(CC(F)(F)F)cc13)C2` [Example 9, [(1S,3S,4S,5S)-5-fluoro-2-azabicyclo[2.2.1]heptan-3-yl]{6-[2-(2,2,2-trifluoroethyl)-5-(trifluoromethyl)thieno[2,3-b]pyridin-4-yl]-2,6-diazaspiro[3.3]heptan-2-yl}methanone], the mrna remaining at 1 µM amounted to 49.4% in series [1] and 34.2% in series [2]. Also, the figures for the IC50 (in the series on RS4; 11 cells; in series [3]; in the series on MOLM-13 cells) were 170 nM, 31.7 nM and 280 nM, respectively. For the same compound, the AUC(0-t) in series [4] was 3750 ng·h/mL. Moreover, the “compound-exposure in plasma (in words)” value in series [4] is given as “good compound-exposure in plasma”.

Turning to `N#Cc1cnc2sc(CC(F)(F)F)cc2c1N1CC2(CN(C(=O)[C@H]3N[C@H]4CC[C@@H]3C(F)(F)C4)C2)C1` [Example 23, 4-{6-[(1S,3S,4S)-5,5-difluoro-2-azabicyclo[2.2.2]octane-3-carbonyl]-2,6-diazaspiro[3.3]heptan-2-yl}-2-(2,2,2-trifluoroethyl)thieno[2,3-b]pyridine-5-carbonitrile], the mrna remaining at 1 µM turned out to be 49.3% in series [1] and 45.4% in series [2]. The IC50 in the series on RS4; 11 cells stood at 280 nM; in series [3], 11 nM; in the series on MOLM-13 cells, 290 nM. Moreover, in series [4], the AUC(0-t) came out at 668 ng·h/mL.
